1 molecule from patent publication US20080194653A1, “Therapeutic Agent For Solid Tumor” (KYOWA HAKKO KOGYO CO., LTD., priority 2005, published 2008) can be followed below.

The subject of series [1] is human liver cancer Hep G2 cells. Nature of the series: Cell growth inhibition test against liver cancer cells (XTT). The class given is cell-based. As to conditions: HepG2, read-out: GI50 value (concentration of 50% growth inhibition). The procedure:
(§1) A549 cells (1000 cells/well), SK-OV-3 cells (2000 cells/well), or HCT 116 cells (1000 cells/well) were seeded in each well of 96-well plates (Nunc, catalog No. 167008), and cultured overnight. Test compounds diluted stepwise were added, and the cells were further cultured for 72 hours (final volume: 100 μL/well). Fifty μL XTT labeling mixture of Cell Proliferation Kit II (XTT) (Roche Diagnostics, catalog No. 1465015) was added to each well, and the plates were incubated at 37° C. After 1 to 3 hours, absorbance at 490 nm (reference wavelength: 655 nm) was measured with a plate reader (Molecular Device, SpectraMax 340PC^384). Growth ratios of the cells in the wells treated with the test compounds were calculated based on the growth ratio of the cells in the control well treated with solvent (dimethyl sulfoxide (DMSO)) for 72 hours, which was defined as 100%.
(§2) As cancer cell lines, human pancreatic cancer MIA PaCa-2 cells (JCRB No. 0070), human cervical cancer HeLa cells (ATCC No. CCL-2), human breast cancer MDA-MB-468 cells (ATCC No. HTB-132), human prostate cancer DU 145 cells (ATCC No. HTB-81), human skin cancer SK-MEL-28 cells (ATCC No. HTB-72), human head and neck cancer KB cells (JCRB No. 9027), human renal cancer 786-0 cells (ATCC No. CRL-1932), and human liver cancer Hep G2 cells (ATCC No. HB-8065) were used. The cells were cultured at 37° C. in a 5% carbon dioxide atmosphere (except for the human breast cancer MDA-MB-468 cells, which were cultured under the condition at 37° C.) by using the mediums mentioned below, respectively.
(§3) In the same manner as that in Test Example 1, the cells were seeded (500 to 4000 cells/well, respectively) in each well of 96-well plates (Nunc, catalog No. 167008), and growth ratios of the cells treated with test compounds were calculated. The measurement of absorbance was performed at 1.5 to 3 hours after the addition of the XTT labeling mixture.
In general terms: Formazan colour is commonly taken as a measure of viable cells.

In series [2] the test system is human cervical cancer HeLa cells. Nature of the series: Cell growth inhibition test against cervical cancer cells (XTT). The class given is cell-based. To be noted: read-out: GI50 value (concentration of 50% growth inhibition). The procedure:
as §1, §2, §3

Series [3] concerns human head and neck cancer KB cells. Description: Cell growth inhibition test against head and neck cancer cells (XTT). It counts as cell-based. To be noted: read-out: GI50 value (concentration of 50% growth inhibition). The procedure:
as §1, §2, §3

Series [4] has as its system human renal cancer 786-0 cells. Description: Cell growth inhibition test against renal cancer cells (XTT). It counts as cell-based. As to conditions: read-out: GI50 value (concentration of 50% growth inhibition). As to the method: as §1, §2, §3
Series [5] concerns human breast cancer MDA-MB-468 cells. Description: Cell growth inhibition test against breast cancer cells (XTT). It counts as cell-based. To be noted: read-out: GI50 value (concentration of 50% growth inhibition). The procedure:
as §1, §2, §3

For series [6], the system named is human colon cancer HCT 116 cells. Description: Cell growth inhibition test against colon cancer cells (XTT). The class given is cell-based. As to conditions: read-out: GI50 value (concentration of 50% growth inhibition), 72 hours. As to the method: (§4) As cancer cell lines, human lung cancer A549 cells (ATCC No. CCL-185), human ovarian cancer SK-OV-3 cells (ATCC No. HTB-77), and human colon cancer HCT 116 cells (ATCC No. CCL-247) were used. For the culture of A549 cells, Nutrient Mixture F-12K medium (Invitrogen, catalog No. 21127-022) containing 10% fetal bovine serum (Invitrogen, catalog No. 10099-141), 100 units/mL penicillin (Invitrogen, catalog No. 15140-122), and 100 μg/mL streptomycin (Invitrogen, catalog No. 15140-122) was used. For the culture of SK-OV-3 cells and HCT 116 cells, McCoy's 5A medium (Invitrogen, catalog No. 16600-082) containing 10% fetal bovine serum (Invitrogen, catalog No. 10099-141), 100 units/mL penicillin (Invitrogen, catalog No. 15140-122), and 100 μg/mL streptomycin (Invitrogen, catalog No. 15140-122) was used. The cells were cultured at 37° C. in a 5% carbon dioxide atmosphere.
as §1

In series [7] the test system is human ovarian cancer SK-OV-3 cells. Nature of the series: Cell growth inhibition test against ovarian cancer cells (XTT). To be noted: read-out: GI50 value (concentration of 50% growth inhibition), 72 hours. It counts as cell-based. The procedure:
as §4, §1

Series [8] concerns human skin cancer SK-MEL-28 cells. Description: Cell growth inhibition test against skin cancer cells (XTT). The class given is cell-based. As to conditions: read-out: GI50 value (concentration of 50% growth inhibition). The procedure:
as §1, §2, §3

The subject of series [9] is human prostate cancer DU 145 cells. Nature of the series: Cell growth inhibition test against prostate cancer cells (XTT). The class given is cell-based. To be noted: read-out: GI50 value (concentration of 50% growth inhibition). As to the method:
as §1, §2, §3

Series [10] addresses T1, recombinant human Eg5 motor domain protein (Homo sapiens, UniProt P52732).
T1 construct: A plasmid expressing the motor domain of human Eg5 was constructed; made in house; host or cells: Escherichia coli BL21 (DE3)
T1 sequence (P52732 18-359 limits assumed): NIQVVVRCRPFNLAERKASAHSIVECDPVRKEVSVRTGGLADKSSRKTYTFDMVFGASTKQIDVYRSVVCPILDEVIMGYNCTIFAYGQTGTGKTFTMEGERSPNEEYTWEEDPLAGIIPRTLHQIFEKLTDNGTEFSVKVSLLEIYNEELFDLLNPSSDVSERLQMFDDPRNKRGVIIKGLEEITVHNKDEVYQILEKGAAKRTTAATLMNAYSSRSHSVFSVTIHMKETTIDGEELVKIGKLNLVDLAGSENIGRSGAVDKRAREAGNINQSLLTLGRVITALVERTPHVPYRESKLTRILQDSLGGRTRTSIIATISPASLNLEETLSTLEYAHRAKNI
Nature of the series: Eg5 enzyme inhibition test (ATPase activity). It counts as biochemical. As to the method: A recombinant human Eg5 motor domain protein was prepared by referring to the literature [Biochemistry, Vol. 35, p. […] A plasmid expressing the motor domain of human Eg5 was constructed, and transformed into Escherichia coli BL21 (DE3). The transformant was cultured at 25° C., and when the OD600 reached 0.74, isopropyl-β-D-thiogalactoside was added at a final concentration of 0.5 mmol/L. The transformant was further cultured for 4 hours, and then the culture medium was centrifuged to collect the cells. The cells were suspended in a buffer and ultrasonicated, and then the sonicated solution was centrifuged to recover the supernatant. The supernatant was purified by cation exchange column chromatography to obtain a partially purified sample. Furthermore, the partially purified sample was purified by gel filtration column chromatography to obtain a finally purified sample.
Measurement of the ATPase activity of Eg5 was carried out by referring to the literatures [EMBO Journal, Vol. 13, p. […] Solution A was dispensed into each well of a 96-well plate as 45 μL portions. Solution B was used to serially dilute a test compound. The diluted test compound solutions in a volume of 30 μL were mixed with Solution A added beforehand in each well of the 96-well plate to start the enzymatic reaction. The enzymatic reaction was performed at 30° C. for 30 minutes. […] The relative activity was calculated to calculate IC50 value.

Series [11] deals with human pancreatic cancer MIA PaCa-2 cells. Nature of the series: Cell growth inhibition test against pancreatic cancer cells (XTT). The class given is cell-based. As to conditions: read-out: GI50 value (concentration of 50% growth inhibition). As to the method: as §1, §2, §3
Series [12] has as its system human lung cancer A549 cells. Description: Cell growth inhibition test against lung cancer cells (XTT). The class given is cell-based. To be noted: read-out: GI50 value (concentration of 50% growth inhibition), 72 hours. The procedure: as §4, §1

`CC(C)(C)C(=O)NC1=NN(C(=O)C(C)(C)C)C(CCNS(C)(=O)=O)(c2ccccc2)S1` (single isomer, unassigned; (-)) [Compound a, (−)-N-[4-(2,2-Dimethylpropionyl)-5-(2-methanesulfonylaminoethyl)-5-phenyl-4,5-dihydro-1,3,4-thiadiazol-2-yl]-2,2-dimethylpropanamide] showed a melting point of 204 to 206 °C. The GI50 in series [1] is < 10 µM. For the same molecule, in [2], the GI50 was < 10 µM. Moreover, the GI50 in series [3] is < 10 µM. The GI50 in series [4] is < 10 µM. Also, in series [5], the GI50 was < 10 µM. In [6], the GI50 was < 0.1 µM. Besides, in [7], the GI50 was < 10 µM. In series [8], the GI50 was < 10 µM. Further, the GI50 in series [9] is < 10 µM. The “Inhibition of the ATPase activity of Eg5 (in words)” value in series [10] is recorded as “inhibited the ATPase activity of Eg5 in a concentration-dependent manner”. Besides, the IC50 in series [10] (30° C., 30 minutes, absorbance at 360 nm, read-out: Inhibition ratios (IC50) on the ATPase activity of Eg5) was < 0.1 µM. Moreover, in [11], the GI50 was < 10 µM. Besides, the GI50 in series [12] was < 10 µM.

A word on the melting point: it is the temperature, or range, at which the solid turns liquid.
